Columns and labels:
ALOMY = assay: Pre-emergence action against ALOMY; format: in vivo, Alopecurus myosuroides; conditions: dosage 320 g/ha; pre-emergence; scored visually after 3 weeks vs untreated controls; 100% = plants have died, 0% = like control plants
Description: (§1) Seeds of monocotyledonous and dicotyledonous weed plants and crop plants are laid out in sandy loam soil in wood-fiber pots and covered with soil. The compounds of the invention, formulated in the form of wettable powders (WP) or as emulsion concentrates (EC), are then applied to the surface of the covering soil in the form of an aqueous suspension or emulsion at a water application rate equating to […], with addition of 0.2% wetting agent. After the treatment, the pots are placed in a greenhouse and kept under good growth conditions for the trial plants. The damage to the test plants is scored visually after a test period of 3 weeks by comparison with untreated controls (herbicidal activity in percent (%): 100% activity=the plants have died, 0% activity=like control plants).

ECHCG [1] = assay: Pre-emergence action against ECHCG; format: in vivo, Echinochloa crus-galli; conditions: pre-emergence, dosage 320 g/ha, scored visually after 3 weeks vs untreated controls
Description: as §1

AMARE [2] = assay: Pre-emergence action against AMARE; format: in vivo, Amaranthus retroflexus; conditions: pre-emergence, dosage 320 g/ha, scored visually after 3 weeks vs untreated controls
Description: as §1

MATIN [3] = assay: Pre-emergence action against MATIN; format: in vivo, Matricaria inodora; conditions: Dosage 320 g/ha, pre-emergence
Description: as §1

STEME [4] = assay: Pre-emergence action against STEME; format: in vivo, Stellaria media; conditions: Dosage 320 g/ha, pre-emergence
Description: as §1

VERPE [5] = assay: Pre-emergence action against VERPE; format: in vivo, Veronica persica; conditions: Dosage 320 g/ha, pre-emergence
Description: as §1

CYPES [6] = assay: Post-emergence action against CYPES; format: in vivo, Cyperus esculentus; conditions: post-emergence, dosage 80 g/ha, visual assessment about 3 weeks after treatment vs untreated controls
Experimental: (§2) Seeds of monocotyledonous and dicotyledonous weed and crop plants are laid out in sandy loam soil in wood-fiber pots, covered with soil and cultivated in a greenhouse under good growth conditions. 2 to 3 weeks after sowing, the test plants are treated at the one-leaf stage. The compounds of the invention, formulated in the form of wettable powders (WP) or as emulsion concentrates (EC), are then sprayed onto the green parts of the plants in the form of an aqueous suspension or emulsion at a water application rate equating to […], with addition of 0.2% wetting agent. After the test plants have been left to stand in the greenhouse under optimal growth conditions for about 3 weeks, the action of the preparations is assessed visually in comparison to untreated controls (herbicidal action in percent (%): 100% activity=the plants have died, 0% activity=like control plants). […] At the same time, inventive compounds leave Gramineae crops such as barley, wheat, rye, millet/Sorghum, corn or rice virtually undamaged when applied post-emergence, even at high active ingredient dosages. In addition, some substances are also harmless to dicotyledonous crops such as soya, cotton, oilseed rape, sugar beet or potatoes. Some of the compounds according to the invention have high selectivity and are therefore suitable for controlling unwanted vegetation in agricultural crops by the post-emergence method. The data of Tables B18 to B34 below illustrate, in an exemplary manner, the […] herbicidal action of the compounds according to the invention, the herbicidal activity being stated in percent.

ECHCG [7] = assay: Post-emergence action against ECHCG; format: in vivo, Echinochloa crus-galli; conditions: post-emergence, dosage 80 g/ha, visual assessment about 3 weeks after treatment vs untreated controls
Experimental: as §2

ABUTH [8] = assay: Post-emergence action against ABUTH; format: in vivo, Abutilon theophrasti; conditions: post-emergence, dosage 80 g/ha, visual assessment about 3 weeks after treatment vs untreated controls
Experimental: as §2

AMARE [9] = assay: Post-emergence action against AMARE; format: in vivo, Amaranthus retroflexus; conditions: post-emergence, dosage 80 g/ha, visual assessment about 3 weeks after treatment vs untreated controls
Experimental: as §2

MATIN [10] = assay: Post-emergence action against MATIN; format: in vivo, Matricaria inodora; conditions: post-emergence, dosage 80 g/ha, visual assessment about 3 weeks after treatment vs untreated controls
Experimental: as §2

PHBPU [11] = assay: Post-emergence action against PHBPU; format: in vivo, Pharbitis purpurea; conditions: post-emergence, dosage 80 g/ha
Experimental: as §2

STEME [12] = assay: Post-emergence action against STEME; format: in vivo, Stellaria media; conditions: post-emergence, dosage 80 g/ha
Experimental: as §2

VIOTR [13] = assay: Post-emergence action against VIOTR; format: in vivo, Viola tricolor; conditions: post-emergence, dosage 80 g/ha
Experimental: as §2

SETVI [14] = assay: Pre-emergence action against SETVI; format: in vivo, Setaria viridis; conditions: pre-emergence, dosage 320 g/ha, scored visually after 3 weeks vs untreated controls
Description: as §1

ABUTH [15] = assay: Pre-emergence action against ABUTH; format: in vivo, Abutilon theophrasti; conditions: pre-emergence, dosage 320 g/ha, scored visually after 3 weeks vs untreated controls
Description: as §1

PHBPU [16] = assay: Pre-emergence action against PHBPU; format: in vivo, Pharbitis purpurea; conditions: Dosage 320 g/ha, pre-emergence
Description: as §1

VIOTR [17] = assay: Pre-emergence action against VIOTR; format: in vivo, Viola tricolor; conditions: Dosage 320 g/ha, pre-emergence
Description: as §1

SETVI [18] = assay: Post-emergence action against SETVI; format: in vivo, Setaria viridis; conditions: post-emergence, dosage 80 g/ha, visual assessment about 3 weeks after treatment vs untreated controls
Experimental: as §2

VERPE [19] = assay: Post-emergence action against VERPE; format: in vivo, Veronica persica; conditions: dosage 80 g/ha
Experimental: as §2

CYPES [20] = assay: Pre-emergence action against CYPES; format: in vivo, Cyperus esculentus; conditions: pre-emergence, dosage 320 g/ha, scored visually after 3 weeks vs untreated controls
Description: as §1

POLCO = assay: Pre-emergence action against POLCO; format: in vivo, Polygonum convolvulus; conditions: Dosage 320 g/ha, pre-emergence
Description: as §1

AVEFA = assay: Pre-emergence action against AVEFA; format: in vivo, Avena fatua; conditions: dosage 320 g/ha, scored visually after 3 weeks vs untreated controls
Description: as §1

Structure (SMILES)	Pre-emergence action against ALOMY (herbicidal activity in percent) (ALOMY) [%]	Pre-emergence action against ECHCG (herbicidal activity) (ECHCG [1]) [%]	Pre-emergence action against AMARE (herbicidal activity) (AMARE [2]) [%]	Pre-emergence action against MATIN (MATIN [3]) [%]	Pre-emergence action against STEME (STEME [4]) [%]	Pre-emergence action against VERPE (VERPE [5]) [%]	Post-emergence action against ECHCG (herbicidal action in percent) (ECHCG [7]) [%]	Post-emergence action against ABUTH (herbicidal action in percent) (ABUTH [8]) [%]	Post-emergence action against AMARE (herbicidal action in percent) (AMARE [9]) [%]	Post-emergence action against MATIN (herbicidal action in percent) (MATIN [10]) [%]	Post-emergence action against PHBPU (PHBPU [11])	Post-emergence action against STEME (STEME [12])	Post-emergence action against VIOTR (VIOTR [13])	SETVI (Table B8, pre-emergence herbicidal activity) (SETVI [14]) [%]	Pre-emergence action against ABUTH (herbicidal activity) (ABUTH [15]) [%]	Pre-emergence action against PHBPU (PHBPU [16]) [%]	Pre-emergence action against VIOTR (VIOTR [17]) [%]	Post-emergence action against VERPE (VERPE [19])	Pre-emergence action against CYPES (herbicidal activity) (CYPES [20]) [%]	other results
CCC(=O)c1c(C)ccc(C(=O)Nc2nnnn2CC)c1Cl [2-135]	90	90	100	90	90	90	90	80	90	90	90	100	90							Post-emergence action against CYPES (herbicidal action in percent) (CYPES [6]): 80%
CCCn1nnnc1NC(=O)c1ccc(C(F)(F)F)c(C(=O)CC)c1C [3-15]	80	100	100	100	100	100	100	90	90	100	90	100	90	100	100	80	100	90		Post-emergence action against SETVI (herbicidal action in percent) (SETVI [18]): 100%
CCCn1nnnc1NC(=O)c1ccc(C)c(C(C)=O)c1C [3-1]	90	90	100	100	90		100	80	90	100	80	90	100	90	100		100		90	Pre-emergence action against POLCO (POLCO): 90%
CCCn1nnnc1NC(=O)c1ccc(C)c(C(=O)C2CC2)c1Cl [3-136]		80	90	90			80		80	90	90	100	80		80	90		80		
CCCn1nnnc1NC(=O)c1ccc(C)c(C(=O)C2CC2)c1C [3-3]	90	100	100	100	90		100		100			80		90	80				90	
CCCn1nnnc1NC(=O)c1ccc(C(F)(F)F)c(C(=O)COC)c1Cl [3-144]	90	100	100	100	100	100	80	90	90	90	100	100	80	100	100	80	100	80	100	Pre-emergence action against AVEFA (herbicidal activity) (AVEFA): 80%; Post-emergence action against SETVI (herbicidal action in percent) (SETVI [18]): 100%
CCn1nnnc1NC(=O)c1ccc(C)c(C(=O)C2CC2)c1Cl [2-136]	90		100	100	90	90				90	90	80	80		90	100				
CCn1nnnc1NC(=O)c1ccc(C(F)(F)F)c(C(=O)c2cc(F)cc(F)c2)c1Cl [2-286]			100				80	80	90		90		80		80	80	100			
CCn1nnnc1NC(=O)c1ccc(C(F)(F)F)c(C(=O)C(C)(C)C)c1Cl [2-143]		90	100	100	100	100						90		80	100		100		90	Pre-emergence action against POLCO (POLCO): 100%

Reference: patent US11051515B2, “3-acyl-benzamides and their use as herbicides” (Bayer Aktiengesellschaft, priority 2017, dated 2021)
